Measured values published in PubChem BioAssay AID256 (DTP/NCI, 2004).
Inconclusive results and toxic doses are left out. How the source made its calls: active means survival T/C of 150% or more; inactive means T/C below 125% in these data. Residues, ends and D or L forms follow the SMILES beside them. *: point of attachment. Cbz = O=C(OCc1ccccc1)*

Test system: CD2F1 mice, L1210 leukemia ip, survival T/C
Test: NCI In Vivo Anticancer Drug Screen. Data for tumor model L1210 Leukemia (intraperitoneal) in CD2F1 (CDF1) mice
Conditions: endpoint: mean survival time, higher = longer survival
How it was run: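 Vehicle-treated tumor-bearing mice served as controls (C) for compound-treated mice (T). Reported figure is T divided by C.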

[1] = dose: 100.0 mg/kg/injection, schedule: Q04DX003 (ip), vehicle: saline with Tween-80
[2] = dose: 200.0 mg/kg/injection, schedule: Q04DX003 (ip), vehicle: saline with Tween-80
[3] = dose: 400.0 mg/kg/injection, schedule: Q04DX003 (ip), vehicle: saline with Tween-80
[4] = dose: 100.0 mg/kg/injection, schedule: Q01DX009 (ip), vehicle: saline with Tween-80
[5] = dose: 200.0 mg/kg/injection, schedule: Q01DX009 (ip), vehicle: saline with Tween-80
[6] = dose: 400.0 mg/kg/injection, schedule: Q01DX009 (ip), vehicle: saline with Tween-80

Measured: T/C

c1ccc(C2NNC(c3ccccc3)NN2)cc1 (configuration not stated)
inactive: dose: 100.0 mg/kg/injection, schedule: Q01DX001 (ip), vehicle: other 100 % of control | dose: 200.0 mg/kg/injection, schedule: Q01DX001 (ip), vehicle: other 97 % of control | dose: 400.0 mg/kg/injection, schedule: Q01DX001 (ip), vehicle: other 92 % of control

OCC12OCC(O1)C(O)C(O)C2O (configuration not stated)
inactive: dose: 100.0 mg/kg/injection, schedule: Q01DX009 (ip), vehicle: saline 97 % of control | dose: 200.0 mg/kg/injection, schedule: Q01DX009 (ip), vehicle: saline 103 % of control | dose: 400.0 mg/kg/injection, schedule: Q01DX009 (ip), vehicle: saline 98 % of control

C=CCC12CCCCC1=CC(=O)CC2 (configuration not stated)
inactive: [1] 97 % of control | [2] 100 % of control | [3] 102 % of control

Cc1ccc(S(=O)(=O)Nc2ccc(I)cc2F)cc1
inactive: [4] 101 % of control | [5] 97 % of control | [6] 97 % of control

O=C(O)CNC(=O)CNC(=O)CNC(=O)OCc1ccccc1 (Cbz-Gly-Gly-Gly-OH)
inactive: [1] 96 % of control | [2] 100 % of control | [3] 97 % of control

COc1ccc(NC(=O)Oc2ccc(Cl)c(C)c2)cc1
inactive: [4] 89 % of control | [6] 92 % of control

Cc1nc2ccccn2c(=O)c1Br
inactive: dose: 50.0 mg/kg/injection, schedule: Q01DX001 (ip), vehicle: saline 104 % of control | dose: 100.0 mg/kg/injection, schedule: Q01DX001 (ip), vehicle: saline 104 % of control | dose: 200.0 mg/kg/injection, schedule: Q01DX001 (ip), vehicle: saline 104 % of control

Nc1ccc2scnc2c1
inactive: [1] 108 % of control | [2] 96 % of control | [3] 101 % of control

CC12CCC3C(CCC4CC(O)CCC43C)C1CCC2=O (configuration not stated)
inactive: [1] 103 % of control | [2] 92 % of control | [3] 97 % of control

OC(c1ccccc1)(c1ccccc1)c1ccc(Cl)cc1
inactive: [4] 97 % of control | [5] 101 % of control | [6] 101 % of control

CC(C)C1=CC2=CCC3C(C)(C#N)CCCC3(C)C2CC1CC#N (configuration not stated)
inactive: [4] 92 % of control | [5] 86 % of control | [6] 86 % of control

Clc1ccc2c(c1)[N-]c1ccccc1S2.Clc1ccc2c(c1)[N-]c1ccccc1S2.[Cl][Pt+2][Cl]
inactive: dose: 3.8 mg/kg/injection, schedule: Q04DX003 (ip), vehicle: saline with Tween-80 102 % of control | dose: 7.5 mg/kg/injection, schedule: Q04DX003 (ip), vehicle: saline with Tween-80 102 % of control | dose: 15.0 mg/kg/injection, schedule: Q04DX003 (ip), vehicle: saline with Tween-80 90 % of control | dose: 30.0 mg/kg/injection, schedule: Q04DX003 (ip), vehicle: saline with Tween-80 94 % of control | dose: 60.0 mg/kg/injection, schedule: Q04DX003 (ip), vehicle: saline with Tween-80 90 % of control
